# Marks after values point to notes of the source that are not given here.
# Assays:
# [1] = test system: MTX-naïve adult patients with active, early RA (<3 years); test: Study J: subject disposition and withdrawals; details: 2 years
# [2] = test system: MTX-naïve adult patients with active, early RA (<3 years); test: Study J: radiographic progression (TSS, joint erosion, joint space narrowing); type: in vivo, human
# Text: The co-primary endpoints, comparing MTX alone with the combination at 1 year, were the ACR50 response (using non-responder imputation), and inhibition of radiographic progression, as measured by change in total Sharp score (TSS). In this study, the term “Major Clinical Response” (MCR) meant a continuous ACR70 response for 6 or more consecutive months.
# At 1 and 2 years, the American College of Rheumatology (ACR) responses (ACR20, ACR50, and ACR70), the Disease Activity Score 28 (DAS28), and the change (Δ) in Total Sharp Score (TSS) were determined for all patients. Results were analyzed for the intention-to-treat (ITT) population using imputation for missing data. Clinical remission was defined as DAS28<2.6. The mean ΔTSS values at 1 year and 2 years (N=791) were determined for patients in each ACR response category (ACR20/50/70) and for patients with DAS28<2.6
# Radiographic progression was measured by Total Sharp Score (TSS) at baseline, and 1 and 2 years in the intention to treat population (ITT) using imputation for missing data. In this analysis, patients were divided into 1 of 2 categories by disease duration at baseline: <6 months (Group 1) or 6 months to 3 years (Group 2). Mean changes in TSS were reported for both groups by each of the 3 treatment arms from baseline to Year 1 and from Year 1 to Year 2.
# Radiographic progression was assessed by mean change from baseline in Total Sharp Score (TSS) and stratified into those with (ΔTSS>0.5) and without (Δ≦TSS 0.5). Patients were categorized as either having radiographic progression at 1 year (ΔTSS>0.5) or not (Δ≦TSS 0.5). A logistic regression model was used to identify predictors of radiographic disease progression by testing several baseline characteristics, including age, disease duration, RF status, TJC, SJC, joint erosions, and CRP. For analyses of CRP, patients were categorized as normal (CRP≦0.8 mg/dL) or abnormal (CRP>0.8 mg/dL).
# Mean change from baseline in Total Sharp Score (TSS) was measured at 6 months, 1 year, and 2 years in the intention-to-treat (ITT) population using imputation for missing data. Patients were classified as having radiographic progression (mean change in TSS>0.5) or without radiographic progression (ΔTSS≦0.5). Patients with inadequate data were excluded from this analysis.
# Patients in the Ada+MTX and the MTX arms were classified according to level of clinical response (non-responder (<ACR20), ACR20, ACR50, or ACR70) and radiographic progression (Yes or No (ΔTSS≦0.5)). The ΔTSS was analyzed overall, and for ACR subgroups. This included determination of mean ΔTSS and probability plots.
# Study J was a 2-year, double-blind, active comparator-controlled, Phase III study. […] For each patient, radiographs of hands and feet were taken at baseline, 6 months, 1 year and 2 years and evaluated for joint erosions (JE) and joint space narrowing (JSN) by 2 blinded radiologists. Changes from baseline in the modified total Sharp score (TSS, 0-398) were calculated for patients in each treatment arm. Cumulative probability plots were generated by estimating the probability of exceeding a given change in TSS. For each treatment, we calculated the percentages of patients whose ΔTSS exceeded specified thresholds, and the probability of having a given ΔTSS (using cumulative probability plots). For each of 4 cumulative probability ranges, 0-10%, 10-50%, 50-90% and 90-100% (higher numbered ranges=greater ΔTSS), mean ΔTSS values were calculated. In previous reports, Study J radiographic analyses employed linear imputation. In the present analysis, only observed data were employed, with no imputation.
# [3] = disease duration 6 months-3 years (n=333)
substance,measurement,setting,value
"adalimumab: human anti-TNF mAb (HUMIRA, Abbott Laboratories), described in U.S. Pat. No. 6,090,382 as D2E7","withdrawn, reason lack of efficacy",[1],19%
same,Mean change in TSS,"[2]; 1 year, ACR20 responders",2.3
same,mean change in JE score,"[2]; 1 year, ACR20 responders",1.0
same,mean change in JSN,"[2]; 1 year, ACR20 responders",1.3
same,Mean change in TSS,"[2]; 1 year, ACR50 responders",1.7
same,mean change in JE score,"[2]; 1 year, ACR50 responders",0.8
same,mean change in JSN,"[2]; 1 year, ACR50 responders",0.9
same,Mean change in TSS,"[2]; 1 year, ACR70 responders",1.1
same,mean change in JE score,"[2]; 1 year, ACR70 responders",0.5
same,mean change in JSN,"[2]; 1 year, ACR70 responders",0.6
same,patients with no radiographic progression,"[2]; 1 year, abnormal baseline CRP normalized at 1 year",53%
same,patients with no radiographic progression,"[2]; 1 year, elevated CRP at both baseline and 1 year",32%
same,Mean change in TSS,"[2]; 1 year, patients with DAS28<2.6",−0.1
same,% of patients with >4 change TSS,[2]; 2 years,30.7%
same,% of patients with >10 change TSS,[2]; 2 years,17.5%
same,% of patients with >20 change TSS,[2]; 2 years,5.4%
same,patients with no radiographic progression (change in TSS ≦0.5),[2]; 2 years,45%
same,mean change in JE score,"[2]; 2 years, ACR20 responders",2.3
same,mean change in JSN,"[2]; 2 years, ACR20 responders",2.2
same,mean change in TSS from baseline,"[2]; 2 years, ACR20 responders",4.5
same,mean change in JE score,"[2]; 2 years, ACR50 responders",1.5
same,mean change in JSN,"[2]; 2 years, ACR50 responders",1.9
same,mean change in TSS from baseline,"[2]; 2 years, ACR50 responders",3.4
same,mean change in JE score,"[2]; 2 years, ACR70 responders",1.6
same,mean change in JSN,"[2]; 2 years, ACR70 responders",1.9
same,mean change in TSS from baseline,"[2]; 2 years, ACR70 responders",3.5
same,Mean change in TSS,"[2]; 2 years, patients with DAS28<2.6",1.3
same,Mean change in TSS,"[2]; 2 years, all points (0-100), observed data",4.7
same,Mean change in TSS,"[2]; 2 years, cumulative probability range 0-10",−2.8
same,Mean change in TSS,"[2]; 2 years, cumulative probability range 50-90",4.7^†
same,Mean change in TSS,"[2]; 2 years, cumulative probability range 90-100",28.9
same,% of patients with >4 change TSS,[2]; 6 months,0.5%
same,% of patients with >10 change TSS,[2]; 6 months,6.5%
same,% of patients with >20 change TSS,[2]; 6 months,10.6%
same,patients with no radiographic progression,[2]; 6 months,63%
same,Mean change in TSS,"[2]; 6 months, all points (0-100), observed data",2.1*
same,Mean change in TSS,"[2]; 6 months, cumulative probability range 0-10",−3.4
same,Mean change in TSS,"[2]; 6 months, cumulative probability range 90-100",13.6
same,Patients with No Radiographic Progression at 1 Year,[2]; CRP (BL and Year 1) Abnormal to Normal,53%*
same,Patients with No Radiographic Progression at 1 Year,[2]; CRP (BL and Year 1) Always Normal,91%
same,Patients with No Radiographic Progression at 1 Year,[2]; CRP (BL and Year 1) Never Normal,32%
same,"No Progression at Month 6, %",[2]; Study J,63%
same,"No Progression at Month 6, patients/total",[2]; Study J,172/271
same,"No Progression at Month 6 and Year 2, %",[2]; Study J,63%
same,"No Progression at Month 6 and Year 2, patients/Month-6 non-progressors",[2]; Study J,109/172
same,"Yr-2 Non-P, %",[2]; among Mo-6 Non-Progressors,63%
same,"Yr-2 Non-P, number of patients",[2]; among Mo-6 Non-Progressors,109
same,"Yr-2 Prog, %",[2]; among Mo-6 Non-Progressors,37%
same,"Yr-2 Prog, number of patients",[2]; among Mo-6 Non-Progressors,63
same,"Yr-2 Non-P, %",[2]; among Mo-6 Progressors,13 (13%)
same,"Yr-2 Non-P, number of patients",[2]; among Mo-6 Progressors,13 (13%)
same,"Yr-2 Prog, %",[2]; among Mo-6 Progressors,87%
same,"Yr-2 Prog, number of patients",[2]; among Mo-6 Progressors,86
same,mean change TSS during year 1,[2]; [3],2.4 sharp score units
same,mean change TSS during year 2,[2]; [3],3.2 sharp score units
same,mean change TSS during year 1,[2]; disease duration <6 months,3.4 sharp score units
same,mean change TSS during year 2,[2]; disease duration <6 months,2.1 sharp score units
same,"Mo-6 Non-Progressors, % of arm",[2]; no progression = ΔTSS≦0.5,63%
same,"Mo-6 Non-Progressors, number of patients",[2]; no progression = ΔTSS≦0.5,172
same,patients with no progression at year 2,[2]; no progression at month 6,63%
same,"Mo-6 Progressors, % of arm",[2]; progression = ΔTSS>0.5,37%
same,"Mo-6 Progressors, number of patients",[2]; progression = ΔTSS>0.5,99
same,patients with no progression at year 2,[2]; progression at month 6,13%
same,mean change from baseline in TSS,"[2]; week 26, ITT with imputation",2.1**
